Measured values published in BigSolDB 2.1.

CCCCCCCCC(=O)NCc1ccc(O)c(OC)c1
solubility (mole fraction)
Conditions	in DMSO	in MTBE	in acetone	in acetonitrile	in ethyl acetate	in methanol	in n-hexane	in water
293.2 K	0.257	0.019	0.161	0.0118	0.0625	0.219	4.06e-05	1.64e-05
298.2 K	0.315	0.0472	0.229	0.0357	0.117	0.28	7e-05	1.93e-05
303.2 K	0.403	0.114	0.299	0.0943	0.199	0.349	0.000119	2.32e-05
308.2 K	0.495	0.27	0.39	0.232	0.309	0.428	0.000189	2.71e-05
313.2 K	0.595	0.427	0.499	0.38	0.421	0.489	0.000296	3.24e-05
318.2 K	0.671	0.569	0.6	0.553	0.566	0.583	0.000457	3.7e-05
323.2 K	0.763	0.729	0.714	0.714	0.712	0.736	0.000595	4.27e-05
